According to patent US8524302B2, “Natural flavour enhancers and methods for making same” (Pepsico, priority 2009, dated 2013):
Entries after “also recorded” stand apart in the source; their conditions may differ.

What was measured:
Format in all cases: in vivo
[1] = system: sensory panel; experiment: Sensory (triangle) tests: kokumi intensity in chicken broth; settings: for Kokumi intensity (0-5): pH 6.5, scale 0-5 (blank = 2)
Description: (§1) Unless otherwise indicated, all sensory tests for the samples are determined using triangle tests (Wieser and Belitz, Z. Lebensm. Unters. Forsch., 1975, 159, 65-72) in three different sessions. The sensory panel is trained to evaluate aqueous solutions (2 mL each) of the following reference taste compounds dissolved in bottled water with a pH of 6.0: sucrose (25 mmol/L) for sweet taste; lactic acid (20 mmol/L) for sour taste; NaCl (30 mmol/L) for salty taste; caffeine (1 mmol/L) for bitter taste; and MSG (3 mmol/L) for umami taste, tannic acid (0.05%) for puckering astringency, and quercetin-O-β-D-glucopyranoside (0.01 mmol/L) for a velvety astringent, mouth-drying oral sensation. For the training of viscosity, a gelatin solution (0.5% in water) was used. […] Sensory analyses were performed in a sensory panel room at 19-22° C. in three different sessions using nose clamps.
(§2) For recording the taste profiles, samples are prepared as indicated in the examples below. Flavor profiles of samples are determined in a triangle test in three different sessions. Panelists refrain from eating or drinking for at least 1 hour prior to the session. At the start of the session and before each trial, the subjects rinsed with water and expectorated. The participants receive a set of two blanks and one taste sample. Liquids are swirled around in the mouth briefly and expectorated. […] Each sample with additive is compared to two reference samples without additives. Kokumi intensity is rated according to a scale from 0 to 5 (with 5 being the most intensive). Punch refers to an initial kokumi sensation experienced in the mouth within 0-3 seconds from the time when a food or liquid is put in the mouth, while long-lasting refers to kokumi felt after 10-60 seconds therefrom.
Sensory (triangle) tests are performed by dilution of 3 grams of chicken broth concentrate (Gourmet Bouillon Huhn; Maggi, Singen, Germany) with 100 mL water (Evian®). Additives are added as specified in table below. The pH-value of all samples is adjusted to 6.5 using formic acid (0.1 mol/L) or sodium hydroxide (0.1 mol/L). […] For each sample, kokumi intensity is rated and panelists were asked to describe sensory characteristics.

[2] = system: sensory panel; experiment: Sensory tests (organoleptic evaluation) of compounds added to inducing compositions; settings: for kokumi sensation / flavour enhancing sensation (in words): added to various inducing compositions or foods; for kokumi sensation (in words): after undergoing an Amadori reaction
Text: Sensory tests subjecting the flavour enhancing compounds to organoleptic evaluation indicate that the isolated flavouring compounds are substantially tasteless in the form of an aqueous solution, but are useful for imparting the enhanced effects when added even in small amounts to certain inducing compositions or food products containing a glutamate and/or nucleic acid as further described below. […] The thresholds given herein are meant to reflect minimum amounts for use in chicken broth as a matrix; however, one skilled in the art, armed with this disclosure, will recognize that this amount can be adjusted, either higher or lower, dependent upon the matrix used and the desired intensity of the kokumi effect. In general, a certain amount of salt is also necessary to achieve the kokumi effect; typically, about 12 mmol/L, which is found naturally in nearly all food products. The compounds can be applied to different kinds of foods including without limitation snacks, soups, cereals, sauces, fish, and fish paste. Unless otherwise indicated, all sensory tests for the samples are determined using triangle tests ([…] and Belitz, Z. Lebensm. Unters. Forsch., 1975, 159, 65-72) in three different sessions. The sensory panel is trained to evaluate aqueous solutions (2 mL each) of the following reference taste compounds dissolved in bottled water with a pH of 6.0: sucrose (25 mmol/L) for sweet taste; lactic acid (20 mmol/L) for sour taste; NaCl (30 mmol/L) for salty taste; caffeine (1 mmol/L) for bitter taste; and MSG (3 mmol/L) for umami taste, tannic acid (0.05%) for puckering astringency, and quercetin-O-β-D-glucopyranoside (0.01 mmol/L) for a velvety astringent, mouth-drying oral sensation. For the training of viscosity, a gelatin solution (0.5% in water) was used. […] Sensory analyses were performed in a sensory panel room at 19-22° C. in three different sessions using nose clamps. For recording the taste profiles, samples are prepared as indicated in the examples below. Flavor profiles of samples are determined in a triangle test in three different sessions. Panelists refrain from eating or drinking for at least 1 hour prior to the session. At the start of the session and before each trial, the subjects rinsed with water and expectorated. The participants receive a set of two blanks and one taste sample. Liquids are swirled around in the mouth briefly and expectorated. […] Each sample with additive is compared to two reference samples without additives.

[3] = system: sensory panel; experiment: Sensory (triangle) tests of the compounds in water; settings: for Sensory descriptors: pH 6.5; for Intensity (0-5): pH 6.5, aroma and taste intensity, scale 0-5; for kokumi sensation (in words): without inducing or glutamate-containing composition
Description: as §1, §2
Sensory (triangle) tests are performed by dissolving the listed compounds in water (Evian®). Additives are added as specified in table below. The pH-value of all samples is adjusted to 6.5 using formic acid (0.1 mol/L) or sodium hydroxide (0.1 mol/L). For each sample, aroma and taste intensity is rated and panelists are asked to describe sensory characteristics.

Row | SMILES | Kokumi intensity (0-5) ([1]; additive 10 mmol/L) | kokumi sensation / flavour enhancing sensation (in words) [2] | Sensory descriptors ([3]; additive 10 mmol/L) | Intensity (0-5) ([3]; additive 10 mmol/L) | kokumi sensation (in words) [3] | kokumi effect (in words) ([1]; Table 10) | Kokumi intensity (0-5) ([1]; additive 5 mmol/L) | kokumi sensation / flavour enhancing sensation (in words) ([2]; listed as formula (I)) | Sensory descriptors ([3]; additive 5 mmol/L) | Intensity (0-5) ([3]; additive 5 mmol/L) | kokumi sensation (in words) [2]
1 | C/C=C/SC[C@H](NC(=O)CC[C@H](NC(=O)[C@H](CS/C=C/C)NC(=O)CC[C@H](N)C(=O)O)C(=O)O)C(=O)O [γ-L-glutamyl-(E)-S-1-propenyl-L-cysteinyl-γ-L-glutamyl-(E)-S-1-propenyl-L-cysteine] | 3.3 | strong flavour enhancing sensation | flavourless | 0 | no kokumi sensation |  |  |  |  |  | 
2 | CC=CSCC(NC(=O)CCC(N)C(=O)O)C(=O)NC(C[S+]([O-])C=CC)C(=O)O (racemic) [γ-L-glu-(E)-S-(propen-1-yl)-L-cys-(E)-S-(propen-1-yl)-L-cys-(+/−)-SO] |  |  |  |  | no kokumi sensation | surprisingly potent kokumi effect | 4.5 | strong kokumi sensation; also recorded: surprisingly highly potent kokumi effect; also recorded: strong flavour enhancing sensation | flavourless | 0 | 
3 | C=CCSC[C@H](N)C(=O)O [S-allyl-L-cysteine] | 3.3 |  |  | 1 |  |  |  |  |  |  | good kokumi sensation
4 | C/C=C/SC[C@H](NC(=O)CC[C@H](N)C(=O)O)C(=O)O [γ-L-glutamyl-(E)-S-1-propenyl-L-cysteine] | 3.3 |  | onion aroma | 0.5 |  |  |  |  |  |  | good kokumi sensation
